A short description of the series: VBP15-002 Phase IIa multiple ascending dose PK and safety. It is filed as in vivo, human. How it is done:
Vamorolone clinical studies have been conducted in adult male volunteers and boys with DMD, a disorder in which skeletal muscle is in a chronic inflammatory state. Two consecutive open-label dose-ranging studies in 48 DMD patients aged 4 to <7 years (corticosteroid-naïve) were conducted (Phase IIa, VBP15-002; Phase IIa, VBP15-003). Doses were tested over a 24-fold dose range (0.25, 0.75, 2.0, and 6.0 mg/kg/day), with 12 participants per group. The first multiple ascending dose (MAD) cohort trial-tested pharmacokinetics (PK) and safety for 2 weeks of drug dosing followed by a 2-week washout (VBP15-002). […] All DMD participants completed the MAD study and then continued on the same dose for a 24-week dose-finding (efficacy and safety) extension study (VBP15-003).
Three consecutive clinical trials of vamorolone treatment of DMD were conducted by CINRG (VBP15-002 [NCT02760264]; VBP15-003 [NCT02760277]; VBP15-LTE [NCT03038399]). A total of 48 participants (ages 4 to <7 years) were initially enrolled into VBP15-002, with trial participants completing month 12 of the 24-month VBP15-LTE study.
VBP15-002 (Phase IIa; two weeks on the drug, two weeks off drug) enrolled 48 corticosteroid-naïve participants with DMD, and all 48 participants completed the study and enrolled into VBP15-003 (Phase IIa extension; 24-week treatment). […]

These results are taken from US20240299416A1, “TREATMENT OF NF-kB-MEDIATED DISEASE” (ReveraGen BioPharma, Inc., priority 2021, published 2024).

Consider `C[C@@H]1C[C@H]2[C@@H]3CCC4=CC(=O)C=C[C@]4(C)C3=CC[C@]2(C)[C@@]1(O)C(=O)CO` [Vamorolone, 17α,21-dihydroxy-16α-methylpregna-1,4,9(11)-triene-3,20-dione], for which the dose-limiting toxicities result (2 weeks dosing, 0.25-6.0 mg/kg/day) is reported as “no dose-limiting toxicities”. Also, the drug accumulation result (day 1 vs day 14) was “no drug accumulation”.
